These results are taken from US6593342B1, “Pharmaceutical compositions comprising 2-quinolones” (Laboratoire L. Lafon, priority 1998, dated 2003).

SMILES strings stand for the structures.

One test concerns HCT-15. Nature of the test: MTT test, HCT-15. It is filed as cell-based. The following applies: Homo sapiens, 10^−5 M, 72 hours, control = 100%, mean ± SEM, read-out: average optical density (MTT), percentage relative to control. The method in brief: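 Human colorectal LoVo and HCT-15 cells in MEM/25 mM HEPES with 5% FCS were seeded, grown 24 h, then exposed 72 h at 37 °C to compounds at 10^−5 to 10^−10 M. Viability was read by MTT reduction (3 h), formazan dissolved in DMSO and read at 570/630 nm, expressed as % of solvent control.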

The next test deals with MCF7. The test can be described thus: Clonogenic test (soft agar colony growth), MCF7. The class given is cell-based, human. The following applies: 21 days, control = 100%, mean ± SEM. The source says:
(§1) 1—Interaction (Stimulation or Inhibition of Proliferation) With the Generation of Clonogenic Cells (Clonogenic Test)
(§2) The test used is that described by Hamburger et al. (Science, 1977; 197, 461-463) and Salmon et al. (New England J. Med., 298, 1321-1327). A cell is considered clonogenic if it has the capacity to proliferate and to give rise to a cell colony. “Human tumor stem cells” are the cells which are the source of the neoplastic cells which constitute a given tumor. These tumor stem cells are responsible for the relapse processes which may be observed after surgical resection of primary tumors and are also responsible for the formation of metastases. In a tumor or a tumor cell line, these clonogenic stem cells differ from the other cells of the tumor or from the neoplastic cell line under consideration in that they conserve their capacity to proliferate in the absence of any solid support.
(§3) In this test, the tumor cells are cultured on a semi-solid support consisting of agar. […] In a tumor cell population, cultured on such a support, it is these clonogenic cells (associated with an unlimited number of cell divisions and whose proliferation is referred to by M. I. Dawson as “anchorage-independent [clonal] growth”) which are capable of growing. The percentage of these clonogenic cells in a tumor or a cell line ranges between 0.1% and 0.001%.
(§4) The influence of the compounds of formulae (I) and (Ia) on the growth of the cell colonies obtained by culturing, for example, the mammalian tumor lines MCF7 and MXT and the colorectal line HT-29 on the semi-liquid culture medium known as “soft agar” was measured. On such a medium, only the clonogenic cells referred to by M. I. Dawson as “anchorage-independent (clonal) cells” survive and grow. The growth of these cells in such a “non-adherent” mode bears witness to their degree of tumorigenicity. The inhibition of the growth of the size of a tumor in which a larger number of clonogenic cells has developed then becomes the evidence of reinforced cytotoxic activity.
(§5) Conversely, this test can also reveal that a compound is capable of inhibiting the generation/proliferation of clonogenic cells, thus making the tumor less able to grow and thus reducing the population of tumor cells.
(§6) The tumor cell lines studied are maintained in culture in 25 cm^2 falcon dishes. They are then trypsinized and the cells are fully dissociated from each other. The percentage of live cells is determined after staining with trypan blue. A cell suspension at a concentration of from 5·10^4 to 15·10^4 cells/ml (depending on the cell type under consideration) is prepared in a 0.3% agar solution. Next, 200 μl of this suspension are inoculated in Petri dishes 35 mm in diameter, in which are placed 3 ml of a base layer consisting of a 0.5% agar solution. The 200 μl of cell suspension are in turn covered with 1.8 ml of an upper layer consisting of a 0.3% agar solution. The dishes are then placed in an incubator at 37° C., 5% CO2 and 70% humidity until the treatment. This treatment is carried out about 1 to 2 hours after the inoculation. The test compounds are prepared at a concentration 100 times greater than the desired concentration and 50 μl of these treating solutions are placed over the upper layer of agar in the corresponding dishes. In the present study, the final concentration of the test products is 10^−5, 10^−7 and 10^−9 M. The dishes are then kept in an incubator for 21 days. On the 21st day the dishes are treated by depositing on the upper layer 100 μl of a 1 mg/ml solution of MTT (3-(4,5-dimethylthiazol-2-yl)-2,5-diphenyltetrazolinium bromide prepared with RPMI 1640 medium) for 3 h at 37° C. After this period, the cell colonies are fixed by adding 2 ml of formalin per dish. After fixing for 24 hours, the formalin is evaporated off and the number of stained cell colonies, thus consisting of metabolically active cells, and whose surface area is greater than 100 μm^2, is determined using an inverted microscope. […]

The test system of a further test is MXT. Nature of the test: Clonogenic test (soft agar colony growth), MXT. The class given is cell-based, mouse. The following applies: 21 days, control = 100%, mean ± SEM.
Description: as §1, §2, §3, §4, §5, §6

Turning to `COc1ccc(-c2cc3c(OC)cc(OC)cc3[nH]c2=O)cc1` [CRL8246, 5,7-Dimethoxy-3-(4-methoxyphenyl)-1,2-dihydro-2-quinolinone], the viability at 10 µM with HCT-15 turned out to be 97.2 ± 5.1%. In addition, the “average number of clones of clonogenic cells, percentage relative to control” value (“average number … percentage relative to control” below) with MCF7 (10^−5 M) came to 126.8 ± 9.9%; in the test with MCF7 (10^−7 M), 145.7 ± 8.9%; in the test on MCF7 (10^−9 M), 139.1 ± 6.6%; with MXT (10^−5 M), 96.7 ± 7.2%; in the test with MXT (10^−7 M), 97.7 ± 9.3%; in the test with MXT (10^−9 M) it was 95.2 ± 6.8%.

As to `COc1ccc(-c2cc3c(OC)cc(OC)cc3n(CCC#N)c2=O)cc1` [CRL8247, 3-[5,7-Dimethoxy-3-(4-methoxyphenyl)-2-oxo-1,2-dihydro-1-quinolinyl]propanenitrile], in the test with HCT-15, the viability at 10 µM turned out to be 87.4 ± 2.5%. The “average number … percentage relative to control” value in the test on MCF7 (10^−5 M) was found to be 51.5 ± 2.8%; with MCF7 (10^−7 M), 81.9 ± 1.2%; in the test with MCF7 (10^−9 M), 98.3 ± 4.2%; with MXT (10^−5 M), 65.7 ± 1.7%; in the test with MXT (10^−7 M), 89.6 ± 4.9%; in the test with MXT (10^−9 M) it was 98.4 ± 2.6%.

As for `COc1ccc(-c2cc3c(OC)cc(OC)cc3n(CCc3nnn[nH]3)c2=O)cc1` [CRL8256, 1-[2-(1H-1,2,3,4-Tetrazol-5-yl)ethyl]-5,7-dimethoxy-3-(4-methoxyphenyl)-1,2-dihydro-2-quinolinone], the viability at 10 µM in the test with HCT-15 came to 73.9 ± 3.6%. Further, the “average number … percentage relative to control” value with MCF7 (10^−5 M) is given as 51.6 ± 3.7%; in the test with MCF7 (10^−7 M) it was 83.8 ± 3.4%; with MCF7 (10^−9 M) it was 97.9 ± 5.6%; with MXT (10^−5 M), 53 ± 1.9%; with MXT (10^−7 M), 103.8 ± 3.9%; in the test on MXT (10^−9 M), 104.5 ± 4.7%.

On to `CCN(CC)C(=O)CCn1c(=O)c(-c2ccc(OC)cc2)cc2c(OC)cc(OC)cc21` [CRL8283, N,N-Diethyl-3-[5,7-dimethoxy-3-(4-methoxy-phenyl)-2-oxo-1,2-dihydro-1-quinolinyl]propanamide], for which, in the test on HCT-15, the viability at 10 µM was 58.2 ± 4.3%. Further, the “average number … percentage relative to control” value in the test with MCF7 (10^−5 M) was 56.5 ± 4.9%; in the test with MCF7 (10^−7 M) it was 106.2 ± 4.8%; with MCF7 (10^−9 M), 97.4 ± 5.8%; in the test with MXT (10^−5 M) it was 23.7 ± 1.4%; with MXT (10^−7 M), 81.2 ± 3%; with MXT (10^−9 M), 91.4 ± 4%.

With `CCN(CC)C(=O)Cn1c(=O)c(-c2ccc(OC)cc2)cc2c(OC)cc(OC)cc21` [CRL8315, N,N-Diethyl-2-[5,7-dimethoxy-3-(4-methoxy-phenyl)-2-oxo-1,2-dihydro-1-quinolinyl]acetamide], the viability at 10 µM in the test with HCT-15 turned out to be 87.9 ± 3.3%. Further, the “average number … percentage relative to control” value in the test with MCF7 (10^−5 M) was 119.6 ± 5.6%; with MCF7 (10^−7 M) it was 127 ± 8.8%; in the test with MCF7 (10^−9 M), 157.1 ± 12.2%; in the test with MXT (10^−5 M) it was 76 ± 2.3%; in the test on MXT (10^−7 M), 103.9 ± 4.3%; in the test with MXT (10^−9 M), 102.4 ± 3.9%.

Turning to `COc1ccc(-c2cc3c(OC)cc(OC)cc3n(CCN(C)C)c2=O)cc1` [CRL8316, 1-[2-(Dimethylamino)ethyl]-5,7-dimethoxy-3-(4-methoxyphenyl)-1,2-dihydro-2-quinolinone], in the test on HCT-15, the viability at 10 µM was found to be 79.8 ± 2.9%. In addition, the “average number … percentage relative to control” value in the test on MCF7 (10^−5 M) is listed as 23.2 ± 1.8%; in the test with MCF7 (10^−7 M) it was 84 ± 5%; in the test on MCF7 (10^−9 M), 83.4 ± 4.6%; with MXT (10^−5 M), 10.8 ± 0.5%; in the test on MXT (10^−7 M) it was 89.1 ± 3.7%; with MXT (10^−9 M), 95.3 ± 3.8%.
